What was measured:
[1] = RP-HPLC retention on Purosphere RP-18e (ODS) column, buffer pH 7.4-acetonitrile; assay type: physicochemical; conditions: for log kw, ODS: extrapolated to buffer pH 7.4 as mobile phase, 25 °C; for s ODS: slope of Soczewiński-Wachtmeister equation, acetonitrile φ 0.3–0.6
Protocol: (§1) Retention parameters reported as the log k values were calculated by the expression:(1) logk=log(tR−t0)/t0 where tR and t0 are the retention times of the solute and a non-retained compound (citric acid), respectively. They were used to calculate the log kw values, i.e., logarithms of retention parameter in the buffer as the mobile phase. For this purpose the Soczewiński-Wachtmeister’s equation was used:log k = log kw − sφ(2) where φ is the volume fraction of organic modifier in the mobile phase; k and kw are retention parameters corresponding to mixed effluent and buffer as the mobile phase, respectively. The slope s is characteristic of a given solute and chromatographic system. Strong linear relationships between log k and φ values were found for all the compounds in the range of effluent composition examined (R^2 > 0.9). The log kw values determined for the ODS (log kw, ODS), IAM (log kw, IAM) and Cholester (log kw, Cholester) columns were intercorrelated and the following linear relationships with a very good statistical quality were obtained:log kw, ODS = 0.691(± 0.094) + 0.982(± 0.044) log kw, IAM(3) SD = 0.257; R^2 = 0.8880; N = 65 log kw, ODS = 0.911(± 0.062) + 0.765(± 0.025) log kw, Cholester(4) SD = 0.192; R^2 = 0.9371; N = 65 log kw, IAM = 0.356(± 0.073) + 0.721(± 0.029) log kw, Cholester(5) SD = 0.224; R^2 = 0.9068; N = 65
(§2) Shimadzu Vp (Shimadzu, Izabelin, Poland) liquid chromatographic system equipped with LC 10AT pump, SPD 10A UV-Vis detector, SCL 10A system controller, CTO-10 AS chromatographic oven and Rheodyne injector valve with a 20 µL loop was applied in HPLC measurements. Three stationary phases were employed: • Purosphere RP-18e (ODS), 125 × 4 mm i.d., 5 µm (Merck); • IAM.PC.DD2 100 × 4.6 mm i.d., 10 µm (Regis Chemicals Company, Morton Grove, IL, USA); • Cosmosil Cholester, 75 × 2 mm i.d., 2.5 µm (Genore, Warsaw, Poland).
(§3) As mobile phases buffer-acetonitrile mixtures were used. The buffer was prepared from 0.01 mol L^−1 solutions of Na2HPO4 and citric acid and the pH 7.4 value was fixed before mixing with organic modifier. With the ODS column acetonitrile concentration in the effluent, expressed as a volume fraction (φ, v/v), was changed in the range 0.3–0.6, with the constant step of 0.1. The flow rate was 1 mL min^−1. With the IAM column acetonitrile concentration was changed in the range 0.2–0.5, also with the constant step of 0.1 and the flow rate was 1.3 mL min^−1. With the Cosmosil Cholester column acetonitrile concentration was changed in the range 0.4–0.6, with the constant step of 0.05 and the flow rate was 0.4 mL min^−1. Samples of test compounds were dissolved in acetonitrile—c.a. 0.005 mg mL^−1. […] They were detected under UV light at 210 and 254 nm. All measurements were carried out at 25 °C. The dead time values were measured from non-retained compound (citric acid) peaks. All reported log kw values are the average of at least three independent measurements. The extrapolated retention coefficients (logs kw) achieved by HPLC on ODS, IAM and Cholester stationary phases were used for modelling the log BB permeation of 65 drug-like compounds employed as a whole test set (Table 1).

[2] = RP-HPLC retention on IAM.PC.DD2 (immobilized artificial membrane) column, buffer pH 7.4-acetonitrile; assay type: physicochemical; conditions: for log kw, IAM: extrapolated to buffer pH 7.4 as mobile phase, 25 °C; for s IAM: slope of Soczewiński-Wachtmeister equation, acetonitrile φ 0.2–0.5
Protocol: as §1, §2, §3

[3] = RP-HPLC retention on Cosmosil Cholester column, buffer pH 7.4-acetonitrile; assay type: physicochemical; conditions: for log kw, Cholester: extrapolated to buffer pH 7.4 as mobile phase, 25 °C; for s Cholester: slope of Soczewiński-Wachtmeister equation, acetonitrile φ 0.4–0.6
Protocol: as §1, §2, §3

human cancer cells = test system: human cancer cells; parameters: method as in doi:10.1016/j.arabjc.2016.12.024, PMID 24126095; conditions: cited from earlier work
normal cells = test system: normal cells; parameters: method as in doi:10.1016/j.arabjc.2016.12.024, PMID 24126095; conditions: cited from earlier work

| log kw, ODS [1] | s ODS [1] | log kw, IAM [2] | s IAM [2] | log kw, Cholester [3] | s Cholester [3] | Structure (SMILES) | antiproliferative activities in human cancer cells (human cancer cells) | toxic effects for normal cells (normal cells) |
| --- | --- | --- | --- | --- | --- | --- | --- | --- |
| 0.97 | 2.70 | 0.55 | 2.10 | 0.20 | 1.25 | CCc1nnc2n(c1=O)CCN2c1ccccc1 [Compound 1] | significant antiproliferative activities | less toxic effects |
| 1.78 | 3.56 | 1.24 | 3.25 | 1.18 | 2.61 | CCc1nnc2n(c1=O)CCN2c1ccc(Cl)cc1 [Compound 5] | significant antiproliferative activities | less toxic effects |
| 1.28 | 3.09 | 0.81 | 2.38 | 0.58 | 1.92 | COC(=O)Cc1nnc2n(c1=O)CCN2c1ccccc1 [Compound 7] |  |  |
| 2.93 | 5.06 | 2.22 | 4.81 | 2.86 | 4.65 | Cc1ccc(N2CCn3c2nnc(-c2ccccc2)c3=O)cc1 [Compound 32] |  |  |
| 3.32 | 5.66 | 2.72 | 5.44 | 3.36 | 5.35 | CCOc1ccc(N2CCn3c2nnc(Cc2ccc(Cl)cc2)c3=O)cc1 [Compound 55] |  |  |
| 1.37 | 3.15 | 0.91 | 2.58 | 0.65 | 1.92 | CCOC(=O)Cc1nnc2n(c1=O)CCN2c1ccc(OC)cc1 [Compound 14] |  |  |
| 2.37 | 4.36 | 1.70 | 3.85 | 1.92 | 3.58 | CCOC(=O)Cc1nnc2n(c1=O)CCN2c1ccc(C)cc1 [Compound 13] |  |  |
| 1.30 | 3.02 | 0.81 | 2.45 | 0.57 | 1.82 | COC(=O)Cc1nnc2n(c1=O)CCN2c1ccc(OC)cc1 [Compound 9] |  |  |
| 3.22 | 5.55 | 2.81 | 5.62 | 3.39 | 5.34 | Cc1ccc(N2CCn3c2nnc(Cc2ccc(Cl)cc2)c3=O)cc1 [Compound 50] |  |  |
| 3.12 | 5.11 | 2.65 | 5.21 | 3.24 | 4.90 | Cc1ccc(N2CCn3c2nnc(Cc2ccccc2Cl)c3=O)cc1 [Compound 48] |  |  |
| 3.04 | 5.30 | 2.51 | 5.22 | 3.15 | 5.05 | Cc1ccc(Cc2nnc3n(c2=O)CCN3c2ccc(C)cc2)cc1 [Compound 46] |  |  |

The remaining lines, values behind:

| Structure (SMILES) | log kw, ODS [1] | s ODS [1] | log kw, IAM [2] | s IAM [2] | log kw, Cholester [3] | s Cholester [3] | antiproliferative activities in human cancer cells (human cancer cells) | toxic effects for normal cells (normal cells) |
| --- | --- | --- | --- | --- | --- | --- | --- | --- |
| O=c1c(CCc2ccccc2)nnc2n1CCN2c1ccccc1Cl [Compound 63] | 2.46 | 4.44 | 1.81 | 4.08 | 1.94 | 3.66 | significant antiproliferative activities | less toxic effects |
| COc1ccccc1N1CCn2c1nnc(-c1ccco1)c2=O [Compound 22] | 1.67 | 3.48 | 1.11 | 3.02 | 1.22 | 2.68 | significant antiproliferative activities | less toxic effects |
| O=c1c(-c2ccco2)nnc2n1CCN2c1ccccc1Cl [Compound 24] | 2.25 | 4.22 | 1.27 | 3.25 | 1.34 | 2.95 | significant antiproliferative activities | less toxic effects |
| O=c1c(-c2ccccc2)nnc2n1CCN2c1ccc(Cl)cc1 [Compound 39] | 3.41 | 5.20 | 2.57 | 5.32 | 3.19 | 5.30 | significant antiproliferative activities | less toxic effects |
| O=c1c(Cc2ccc(Cl)cc2)nnc2n1CCN2c1ccccc1 [Compound 44] | 3.60 | 5.62 | 2.39 | 4.81 | 3.01 | 4.70 |  |  |
| CCc1nnc2n(c1=O)CCN2c1ccccc1Cl [Compound 3] | 1.22 | 3.02 | 0.80 | 2.51 | 0.46 | 1.70 |  |  |
| O=c1c(-c2ccccc2)nnc2n1CCN2c1ccc(Cl)c(Cl)c1 [Compound 40] | 3.48 | 5.90 | 3.26 | 6.40 | 3.86 | 6.02 |  |  |
| O=c1c(CCc2ccccc2)nnc2n1CCN2c1ccc(Cl)c(Cl)c1 [Compound 65] | 4.29 | 6.66 | 3.40 | 6.55 | 4.12 | 6.20 |  |  |
| O=c1c(Cc2ccccc2)nnc2n1CCN2c1ccc(Cl)cc1 [Compound 57] | 3.11 | 5.05 | 2.52 | 5.06 | 2.98 | 4.85 |  |  |
| O=c1c(Cc2ccccc2)nnc2n1CCN2c1ccccc1 [Compound 41] | 2.90 | 5.02 | 3.26 | 6.45 | 2.23 | 3.75 |  |  |
| O=c1c(-c2ccccc2)nnc2n1CCN2c1ccccc1Cl [Compound 37] | 2.43 | 4.60 | 1.73 | 3.84 | 1.96 | 3.65 |  |  |
| Cc1cccc(N2CCn3c2nnc(-c2ccccc2)c3=O)c1C [Compound 36] | 2.74 | 4.85 | 1.85 | 4.05 | 2.34 | 3.60 |  |  |
| O=c1c(Cc2ccccc2Cl)nnc2n1CCN2c1ccc(Cl)cc1 [Compound 58] | 3.55 | 5.65 | 3.22 | 6.32 | 3.74 | 5.62 |  |  |
| O=c1c(-c2ccco2)nnc2n1CCN2c1ccc(Cl)cc1 [Compound 26] | 2.65 | 4.59 | 2.02 | 4.44 | 2.29 | 4.15 |  |  |

Source: publication PMC7037052, “Predicting the Blood-Brain Barrier Permeability of New Drug-Like Compounds via HPLC with Various Stationary Phases” (Molecules, 2020)
